Test results taken from BindingDB's records for doi:10.1021/jm00022a006 (Eli Lilly, 1995).

Molecular target: Leukotriene B4 receptor 1 (Cavia porcellus)
Assay: Binding affinity towards LTB4 receptor guinea pig spleen cells using [3H]LTB4 as radioligand

## CCCc1c(OCCCOc2cc(O)c(-c3ccc(F)cc3)cc2CC)cccc1Sc1ccccc1C(=O)O [2-{3-[3-(5-Ethyl-4'-fluoro-2-hydroxy-biphenyl-4-yloxy)-propoxy]-2-propyl-phenylsulfanyl}-benzoic acid]
  Ki: 42 nM

## CCCc1c(OCCCOc2cc(O)c(-c3ccc(F)cc3)cc2CC)cccc1[S+]([O-])c1ccccc1C(=O)O (stereo not drawn) [2-{3-[3-(5-Ethyl-4'-fluoro-2-hydroxy-biphenyl-4-yloxy)-propoxy]-2-propyl-benzenesulfinyl}-benzoic acid]
  Ki: 5.9 nM

## CCCc1c(OCCCOc2cc(O)c(-c3ccc(F)cc3)cc2CC)cccc1C(=O)c1ccccc1C(=O)O [2-{3-[3-(5-Ethyl-4'-fluoro-2-hydroxy-biphenyl-4-yloxy)-propoxy]-2-propyl-benzoyl}-benzoic acid]
  Ki: 33 nM
